Tests used:
[1] = release of N-0923 from the depot form, plasma level and bioavailability; assay type: in vivo; details: depot formulation according to the invention, read-out: bioavailability of the pharmaceutical composition according to the invention
Procedure: Sprague-Dawley rats were given subcutaneous bolus injections of an oily N-0923 crystalline suspension of the following composition:
6, 24 and 48 hours after the 2nd and 46th administration plasma samples were taken and the N-0923 concentration was analyzed using LC-MS-MS. The readings from 6 animals were averaged.
The test conditions were identical to those in implementation example 5 except that every 48 hours a dose of 12.5 mg N-0923 per kg body weight was applied.
Readings were taken 2, 4, 8, 24, 32 and 48 hours after the 22nd application and were quantified.

[2] = monkeys, aqueous solution; cited from earlier work
[3] = distinct first-pass effect; cited from earlier work
[4] = aqueous solution (5% dextrose); cited from earlier work
[5] = release of N-0923 from the depots in the monkey, dose versus plasma level; assay type: in vivo, Cynomolgus monkeys; details: oily crystalline suspensions, FIG. 4, after 3 and 85 daily applications
Procedure: Cynomolgus monkeys were given daily subcutaneous bolus injections of oily N-0923 crystalline suspensions of the following composition: The application was performed daily in dosages of 0.25, 1 and 4 mg/kg. 2, 6 and 24 hours after the 3rd and 85th application plasma samples were taken and analyzed using LC-MS-MS.

Compound: CCCN(CCc1cccs1)[C@H]1CCc2c(O)cccc2C1 [N-0923, S(-)-2-(N-propyl-N-2-thienylethylamino)-5-hydroxytetralin]
- bioavailability [1]: > 70%
- half-time value after intravenous injection [2]: 52 min
- bioavailability after oral administration [3]: about 0.5%
- time for which the subcutaneous injection was effective [4]: 60 to 70 min
- relation of active-agent plasma levels to the dose introduced in the body [5]: largely linear relation
